From US10208023B2, “Heterocyclic inhibitors of the sodium channel” (priority 2013, dated 2019) come the findings set out here.

Structures are written as SMILES. Read-outs that look alike come from different tables or passages of the source.

Assay [1] concerns formalin test in rats. Kind of assay: Formalin test in rats (automated flinch detection). The conditions noted are these: rat; for Phase 1 paw flinches: Phase I (0-9 mins); for Total Phase 2 paw flinches: Phase II (10-60 mins); for Phase 2a paw flinches: Phase IIA (10-40 mins); for Phase 2b paw flinches: Phase IIB (41-60 mins). It counts as in vivo. The method, then: The formalin test in rats was performed as previously described (McNamara, 2007. Proc. Natl. Acad. Sci., vol 104, page 13525) using an automated flinch-detecting system (T. Yaksh, University of California at San Diego, La Jolla, Calif.). On the day of testing, a small metal band (0.5 g) was loosely placed around the right hind paw of a male Sprague-Dawley rat (average weight, ˜250 g). The rats were allowed to acclimate to a Plexiglas chamber for at least 30 min before testing. Formalin was then injected (50 μl of 2.5% formalin, diluted in saline) into the dorsal surface of the right hind paw of the rat, and the animal was put into a chamber of the automated formalin apparatus where movement of the formalin-injected paw was recorded. The number of paw flinches per minute was tallied for the next 60 minutes. The time interval phases were defined as follows: Phase I (0-9 mins), Phase II (10-60 mins), Phase IIA (10-40 mins), and Phase IIB (41-60 mins). The following compounds were administered 1 hour prior to formalin administration. Compound 52 from Table 1 was administered by oral gavage in 4% DMSO, 10% Solutol, 86% H2O. Gabapentin was administered subcutaneously in 0.9% NaCl (aq). 4.

Assay [2] concerns the target hNav1.7 (Homo sapiens (Human), UniProt Q15858). Kind of assay: Nav1.7 potency, Patchliner automated patch clamp. It counts as cell-based. Conditions: automated patchclamp. The method, then:
The generation of a HEK 293F cell line stably expressing human Nav1.7/Navβ1 was achieved by co-transfecting human SCN9A and human SCN1B cDNAs, subcloned into plasmid vectors, utilizing standard transfection techniques. Clones were selected using appropriate selection agents (0.3 mg/mL Zeocin and 0.8 mg/mL Geneticin) and maintained in Dulbecco's Modified Eagle medium, 10% fetal bovine serum, 1% non-essential amino acids to ˜80% confluence at 37° C. in a humidified incubator with 95% atmosphere and 5% CO2.
In some cases, the potency of compounds was measured using either the Patchliner automated patch clamp platform (Nanion) or manual patch clamp techniques. Both approaches allowed the compounds to be characterized based upon the ability of a compound to modulate use- and/or state-dependence. The potency data is tabulated in Table 3 and is represented by eight data fields. The first four fields represent potency data measured with the Patchliner automated platform under varying use- and state-dependent electrophysiology protocols similar to the Patch express protocols detailed above. The first data column describes the potency of compounds when the Nav1.7 channel is being repetitively activated at a 7 Hz hyperpolarization frequency (Table 3: hNav1.7: IC50 of inward current block at 7 Hz, Automated patchclamp). The second data column represents the potency at which 50% of the initial hyperpolarization pulse is inhibited by the compounds (Table 3: hNav1.7: IC50 of P1 block, Automated patchclamp). The third data column details the potency of compounds in their ability to block 50% of Nav1.7 channels when these channels are induced into the slow inactivated state (Table 3: hNav1.7: IC50 of slow inactivation block, Automated patchclamp). […] The next three data fields describe the data generated from manual patchclamp electrophysiology measurements using similar methods to those employed for automated patchclamp studies. […] The last column characterizes the state-dependence of compound inhibition. […]

The mark [3] stands for this setting: 3 mg/kg oral gavage 1 hour prior to formalin.
The mark [4] stands for this setting: 10 mg/kg oral gavage 1 hour prior to formalin.
[5] abbreviates: 30 mg/kg oral gavage 1 hour prior to formalin.
Setting [6] is: 100 mg/kg SC 1 hour prior to formalin.

Sequence of hNav1.7 (Q15858 whole entry): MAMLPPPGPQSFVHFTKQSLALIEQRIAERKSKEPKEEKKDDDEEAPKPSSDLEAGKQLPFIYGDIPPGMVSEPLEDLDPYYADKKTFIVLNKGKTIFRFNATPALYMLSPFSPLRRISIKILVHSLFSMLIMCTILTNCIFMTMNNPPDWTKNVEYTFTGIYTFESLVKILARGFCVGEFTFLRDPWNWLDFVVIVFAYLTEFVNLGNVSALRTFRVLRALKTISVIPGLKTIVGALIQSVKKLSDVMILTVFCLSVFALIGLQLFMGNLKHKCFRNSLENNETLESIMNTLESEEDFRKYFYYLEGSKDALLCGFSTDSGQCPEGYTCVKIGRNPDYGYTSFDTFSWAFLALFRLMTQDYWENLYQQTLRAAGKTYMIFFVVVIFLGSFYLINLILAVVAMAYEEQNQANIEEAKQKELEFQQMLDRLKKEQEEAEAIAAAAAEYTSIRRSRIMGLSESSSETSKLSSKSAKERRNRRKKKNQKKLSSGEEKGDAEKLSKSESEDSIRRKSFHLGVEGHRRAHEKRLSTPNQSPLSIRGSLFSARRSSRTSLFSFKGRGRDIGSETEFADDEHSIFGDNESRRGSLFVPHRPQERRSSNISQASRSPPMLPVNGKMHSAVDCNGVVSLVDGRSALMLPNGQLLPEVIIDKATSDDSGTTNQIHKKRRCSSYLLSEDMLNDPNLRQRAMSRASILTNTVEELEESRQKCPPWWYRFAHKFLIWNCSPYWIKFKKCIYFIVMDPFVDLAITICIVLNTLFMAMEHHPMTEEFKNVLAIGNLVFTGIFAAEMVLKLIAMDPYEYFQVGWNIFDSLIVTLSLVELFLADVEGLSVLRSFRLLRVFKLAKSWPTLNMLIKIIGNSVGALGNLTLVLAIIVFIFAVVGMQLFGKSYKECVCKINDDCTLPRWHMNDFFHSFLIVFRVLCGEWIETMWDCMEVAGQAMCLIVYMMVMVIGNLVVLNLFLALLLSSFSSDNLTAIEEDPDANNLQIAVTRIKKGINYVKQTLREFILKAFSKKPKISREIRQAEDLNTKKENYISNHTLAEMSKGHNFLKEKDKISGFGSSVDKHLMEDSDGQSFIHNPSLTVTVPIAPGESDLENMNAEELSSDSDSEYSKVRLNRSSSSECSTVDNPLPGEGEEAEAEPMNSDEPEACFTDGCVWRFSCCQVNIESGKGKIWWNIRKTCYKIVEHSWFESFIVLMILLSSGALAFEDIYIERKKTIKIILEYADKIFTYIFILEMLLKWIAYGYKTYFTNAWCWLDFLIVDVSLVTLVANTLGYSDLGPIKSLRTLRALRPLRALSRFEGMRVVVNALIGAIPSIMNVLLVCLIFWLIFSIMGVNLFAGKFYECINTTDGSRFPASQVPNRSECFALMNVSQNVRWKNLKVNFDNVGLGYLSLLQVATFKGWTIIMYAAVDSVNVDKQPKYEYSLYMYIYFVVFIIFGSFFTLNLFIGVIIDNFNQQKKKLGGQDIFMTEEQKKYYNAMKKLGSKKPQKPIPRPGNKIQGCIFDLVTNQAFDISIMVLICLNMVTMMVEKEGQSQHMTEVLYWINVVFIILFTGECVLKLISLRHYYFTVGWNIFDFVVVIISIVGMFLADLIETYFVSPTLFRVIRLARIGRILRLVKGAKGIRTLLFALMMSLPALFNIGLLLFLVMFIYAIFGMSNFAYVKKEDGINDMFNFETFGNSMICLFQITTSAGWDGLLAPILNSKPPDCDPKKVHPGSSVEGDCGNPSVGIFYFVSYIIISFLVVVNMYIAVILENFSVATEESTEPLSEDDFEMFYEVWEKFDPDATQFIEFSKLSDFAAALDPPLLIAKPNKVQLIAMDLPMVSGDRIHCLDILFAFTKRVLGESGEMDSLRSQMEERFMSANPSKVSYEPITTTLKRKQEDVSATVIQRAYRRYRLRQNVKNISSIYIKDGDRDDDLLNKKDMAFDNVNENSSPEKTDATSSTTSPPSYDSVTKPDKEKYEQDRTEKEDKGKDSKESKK
Sequence of hNav1.7 (Q07699 19-218 partner): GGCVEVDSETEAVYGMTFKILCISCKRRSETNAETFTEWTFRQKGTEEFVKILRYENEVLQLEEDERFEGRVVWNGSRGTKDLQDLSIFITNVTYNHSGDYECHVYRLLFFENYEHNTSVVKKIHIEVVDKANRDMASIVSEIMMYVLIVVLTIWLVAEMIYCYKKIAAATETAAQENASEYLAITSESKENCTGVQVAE

With `NC1(c2nc3cc(C(F)(F)F)cc(C(F)(F)F)c3[nH]2)Cc2ccccc2C1` [Compound 52, 2-(4,6-bis(trifluoromethyl)-1H-benzo[d]imidazol-2-yl)-2,3-dihydro-1H-inden-2-amine], in assay [1] (setting [3]), the “Phase 1 paw flinches” value came out at 345 ± 75, the “Total Phase 2 paw flinches” value is 1365 ± 174, the “Phase 2a paw flinches” value is on record as 988 ± 139 and the “Phase 2b paw flinches” value turned out to be 377 ± 79. In addition, in assay [1] (setting [4]), the “Phase 1 paw flinches” value is given as 315 ± 58, the “Total Phase 2 paw flinches” value was determined as 962 ± 189, the “Phase 2a paw flinches” value worked out at 758 ± 199 and the “Phase 2b paw flinches” value is 204 ± 66. Further, in assay [1] (setting [5]), the “Phase 1 paw flinches” value was determined as 333 ± 75, the “Total Phase 2 paw flinches” value stood at 853 ± 259, the “Phase 2a paw flinches” value is on record as 706 ± 261 and the “Phase 2b paw flinches” value came out at 147 ± 101.

`N[C@H](Cc1cccc(C(F)(F)F)c1)C(=O)NCc1nc2c(C(F)(F)F)cc(C(F)(F)F)cc2[nH]1` [Compound 75, (R)-2-amino-N-((4,6-bis(trifluoromethyl)-1H-benzo[d]imidazol-2-yl)methyl)-3-(3-(trifluoromethyl)phenyl) propanamide]: the concentration for half-maximal inhibition (IC50) (as a rule, the point on the concentration scale where inhibition reaches its midpoint) is 15000 nM in assay [2] (7 Hz, read-out: Nav1.7 IC50 INWARD CURRENT BLOCK (nM) (7 Hz, Automated Patchclamp)); 15000 nM in assay [2] (initial pulse (P1), read-out: Nav1.7 IC50 P1 BLOCK (nM) (Automated Patchclamp)); 15000 nM in assay [2] (slow inactivated state, read-out: Nav1.7 IC50 SLOW INACTIVATION BLOCK (nM) (Automated Patchclamp)).

For `NCC1(CC(=O)O)CCCCC1` [Gabapentin, reference compound], in assay [1] (setting [6]), the “Phase 1 paw flinches” value is given as 320 ± 58, the “Total Phase 2 paw flinches” value was 562 ± 213, the “Phase 2a paw flinches” value came to 486 ± 202 and the “Phase 2b paw flinches” value is 77 ± 47.
